{"source": "patent US20200222418A1", "about": "“USE OF PHENOTHIAZINE DERIVATIVE IN THE TREATMENT OF INFECTION CAUSED BY BACTERIA CARRYING TYPE IV PILI” (priority 2017, published 2020)", "key": {"[1]": {"test_system": "Nm2C4.3 microcolonies on HBMEC, human bone marrow endothelial cell line", "assay": "Dispersion of meningococcal microcolonies on HBMEC (vascular colonisation index)", "format": "cell-based, Neisseria meningitidis", "details": "30 min, Trifluoperazine 10-40 μM, Gentamicin 150 μg/ml, Cefotaxim 20 μg/ml", "method": "Human […] microvascular endothelial cells (HBMEC) were infected with Nm2C4.3 for 1 h 30, treated with Trifluoperazine (10-40 μM) for 30 minutes, before fixation and immunofluorescence analysis using anti-Nm2C4.3 antibody and Alexa Fluor 633 Phalloidin. (A) Representative fluorescence microscopy showing bacterial colony (white dots) formed at the surface of the endothelial cells. (B) Quantification of the bacterial colonization was performed using Image J software.\nHBMEC, a human endothelial cell line isolated from […] capillaries (Schweitzer et al., 1997) were grown in Dulbecco's Modified Eagle Medium (DMEM) 4.5 g/L-Glutamax (ThermoFischer) 10% FBS. Cells were grown on Thermanox coverslips coated with gelatin 2% (BD Difco #214340) for 2 days to reach confluency. Cells were then infected with a suspension of Nm2C4.3 (˜10^7 CFU/ml) in DMEM/FBS during 30 minutes to allow bacterial adhesion. Cells were then washed three times with medium to remove non-adherent bacteria and infection was pursued for 1 h 30: adherent bacteria grew at the endothelial cell surface and formed micro-colonies. Trifluoperazine was then added to obtain final concentrations of 10, 20, 30 and 40 μM. After incubation for 30 minutes, cells were washed and fixed in 4% Paraformaldehyde for 10 min, washed three times with PBS, and permeabilized with 0.1% Triton X-100 in PBS for 10 min. Cells were blocked for 30 min with 3% BSA in PBS and were incubated for 2 h with the primary antibodies (Rabbit polyclonal anti-Nm2C4.3 strain, kindly provided by Dr X. Nassif, INEM, Paris). After three washes with PBS, cells were incubated for 1 h with […] anti-rabbit IgG (Jackson ImmunoResearch Laboratories), together with Alexa Fluor 633 Phalloidin (Thermofischer) and DAPI ([…], Sigma Aldrich) to stain Actin and nuclei, respectively. Labelled preparations were mounted in Glycergel media (DAKO) and image acquisitions were performed with a DM16000 microscope (Leica, X40). Quantification was done with ImageJ software (NIH). […]"}, "[2]": {"test_system": "N. meningitidis 2C4.3 isogenic derivative mutant PilT", "assay": "Aggregation of PilT mutant in suspension (phase-contrast video microscopy)", "format": "cell-based, Neisseria meningitidis", "details": "50 μM", "method": "N. meningitidis 2C4.3 wild type strain and the isogenic derivative mutant PilT ([…]PiIT) were grown in liquid culture at 10^7 CFU/ml for 2 h to form bacterial aggregates and then treated with 50 μM Trifluoperazine. Time lapse phase-contrast video microscopy was performed to visualize the effect on bacterial aggregates over time. Images were taken at the indicated time points of the video.\n(§1) N. meninigitidis 2C4.3 strain and the isogenic derivative mutant PilT, where the pilT gene was interrupted by an erythromycin-resistance cassette (Pujol et al., 1999), were grown in suspension in DMEM medium supplemented with 10% heat-inactivated fetal calf serum. PilT belongs to a highly conserved protein family homologous to AAA-type motor proteins and is proposed to cause the retraction of type IV pili by disassembling the pilin subunits at the base of the fiber (Morand et al., 2004). After 2 h of growth, Trifluoperazine (or control vehicle) was added at 50 μM for 20 min. The effect on bacterial aggregates were visualized over time using a phase-contrast microscope or the bacterial suspensions were fixed in 4% Paraformaldehyde for 10 min, centrifuged at 1000 rpm for 5 minutes and the bacterial pellets washed in PBS. After negative staining with 1% phosphotungstic acid, bacteria were analysed by transmission electron microscopy, using a JEOL 1011 microscope."}, "[3]": {"test_system": "meningococcal colonization of the human dermal vasculature", "assay": "In vivo meningococcal infection of mice engrafted with human skin"}, "[4]": {"test_system": "N. meningitidis 2C4.3 PilT mutant type IV pili", "assay": "Surface expression of type IV pili by transmission electron microscopy, PilT mutant", "format": "cell-based, Neisseria meningitidis", "details": "50 μM", "method": "N. meningitidis 2C4.3 wild type strain and the isogenic derivative mutant PilT ([…]PiIT) were grown in liquid culture at 10^7 CFU/ml for 2 h to form bacterial aggregates and then treated with 50 μM Trifluoperazine for 15 minutes before analysis by transmission electron microscopy. Arrows point at bundles of type IV pili expressed at the bacterial surface.\nas §1"}, "[5]": {"test_system": "Nm2C4.3 colonization of human brain vessels", "parameters": "species or system Neisseria meningitidis", "details": "40 μM for 30 min"}, "[6]": {"test_system": "HBMECs infected with meningococci", "assay": "PECAM-1 recruitment at bacterial adhesion sites in infected HBMEC", "format": "cell-based, human", "details": "5 μM for 2 h during infection", "method": "(A) Monolayers of HBMECs were non-infected or infected for 2 h with meningococci and the effect on the localisation of the endothelial cell junction proteins PECAM-1 and […]-catenin was analysed by immunofluorescence analysis. Arrows point at PECAM-1 molecules recruited at bacterial adhesion sites (B) HBMECs were infected for 2 h with meningococci in the presence or in the absence of 5 μM Trifluoperazine and the effect on junctional PECAM-1 and on the endothelial cell cytoskeleton remodelling (Ezrin, Actin) was analysed by immunofluorescence analysis. (C) Quantification of Actin and PECAM-1 recruitment at sites of bacterial adhesion was performed using Image J software.\nWhen indicated, HBMECs were grown on Thermanox coverslips coated with gelatin 2% for 2 days to reach confluency. Cells were then infected as above described in the presence or in the absence of 5 μM Trifluoperazine for 2 h. Cells were washed and fixed in 4% paraformaldehyde and immunolabelling was performed with a polyclonal antisera raised anti-Nm2C4.3 strain, anti-human PECAM-1 mouse monoclonal, clone HEC7 (ABCAM ab119339) or rabbit polyclonal 177 raised against PECAM-1, obtained from WA Muller (Northwestern University, Chicago, Ill., US), anti-0 catenin (05-482, UBI), polyclonal antisera raised against Ezrin, Alexa Fluor 633 Phalloidin. […] Quantifications were done using ImageJ software (NIH)."}, "[7]": {"test_system": "Nm2C4.3 adhesion to human dermal microvascular endothelial cells (HDMECs)", "assay": "Adhesion of pretreated meningococci to endothelial cells", "format": "cell-based, Neisseria meningitidis", "details": "bacteria pre-treated with 30 μM for 30 minutes", "method": "Nm2C4.3 grown in suspension were pretreated in the absence or in the presence of 30 μM Trifluoperazine for 30 minutes before adhesion to human dermal microvascular endothelial cells (HDMECs) for 30 minutes. Infection was allowed to proceed for further 30, 60 or 90 minutes before fixation and immunostaining using anti-Nm2C4.3 antibody and Alexa Fluor 633 Phalloidin. (A) Representative fluorescence microscopy showing bacterial colony (white dots) formed at the surface of the endothelial cells. (B) Quantification of the bacterial colonization was performed using Image J software."}}, "data": [{"smiles": "CN[C@@H]1[C@@H](O)C(O[C@@H]2[C@@H](O)[C@H](O[C@H]3O[C@H]([C@@H](C)NC)CC[C@H]3N)[C@@H](N)C[C@H]2N)OC[C@]1(C)O", "note": "(stereo partly drawn) [Gentamicin, (3R,4R,5R)-2-{[(1S,2S,3R,4S,6R)-4,6-diamino-3-{[(2R,3R,6S)-3-amino-6-[(1R)-1-(methylamino)ethyl]oxan-2-yl]oxy}-2-hydroxycyclohexyl]oxy}-5-methyl-4-(methylamino)oxane-3,5-diol]", "values": [{"measurement": "dispersion of compact meningococcal microcolonies established at the endothelial cell surface", "setting": "[1]", "result": "poorly induced the dispersion"}]}, {"smiles": "CN1CCN(CCCN2c3ccccc3Sc3ccc(C(F)(F)F)cc32)CC1", "note": "[Trifluoperazine]", "values": [{"measurement": "effect on aggregation of PilT mutant strain", "setting": "[2]", "result": "had no effect"}, {"measurement": "colonization of the human dermal vasculature", "setting": "[3]", "result": "prevents the massive colonization"}, {"measurement": "incidence of vascular alteration", "setting": "[3]", "result": "reduces incidence of vascular alteration"}, {"measurement": "signs of intravascular coagulation", "setting": "[3]", "result": "reduces the signs of intravascular coagulation"}, {"measurement": "hallmark of vascular inflammation", "setting": "[3]; alone or in combination with cefotaxime", "result": "drastically reduced"}, {"measurement": "surface expression of type IV pili of PilT mutant", "setting": "[4]", "result": "did not affect"}, {"measurement": "dispersal of meningococcal microcolonies in infected brain sections", "setting": "[5]", "result": "induced the dispersal"}, {"measurement": "dispersion of compact meningococcal microcolonies established at the endothelial cell surface", "setting": "[1]", "result": "induced their dispersion"}, {"measurement": "PECAM-1 recruitment at bacterial adhesion sites", "setting": "[6]", "result": "prevented PECAM-1 recruitment"}, {"measurement": "bacterial colonization", "setting": "[6]", "result": "did not affect bacterial colonization"}, {"measurement": "adhesion to and colony formation at the endothelial cell surface", "setting": "[7]", "result": "did no longer adhere to and/or form bacterial colony"}]}]}
